Data reported in US20040176349A1, “Antibacterial composition” (priority 2001, published 2004).
Where two headings read alike, the source gives them in different places.

Legend:
enterococci = assay: Checkerboard study, synergy summary of Example 2; format: cell-based, Enterococcus; conditions: in words
From the text: (§1) The aim of the study was to detect any synergy between PFOB and the other antibiotics. For the purposes of the study, synergy was defined in accordance with the FIC (fractional inhibitory concentration) index, as disclosed by Lorian (1991, In “Antibiotics in Laboratory Medicine” 3rd edition, Eds. Williams & Wilkins; esp. p 434-443). In essence, if the combination of test compounds gives at least a 4-fold reduction in the FIC value for each compound, then a synergy may be considered to exist (i.e. FIC of the combination <0.5=synergy; FIC 0.5-2.0=“indifference”; and FIC >2=antagonism).

E. faecalis ATCC 10541 = assay: Checkerboard microdilution MIC with PFOB, Table 2; format: cell-based; conditions: E. faecalis ATCC 10541; for Synergy FIC: FIC index of PFOB + labelled partner, <0.5 = synergy; for MIC of partner antibiotic in the presence of PFOB at 0.5 mg/L: PFOB 0.5 mg/L; for MIC of partner antibiotic in the presence of PFOB at 1 mg/L: PFOB 1 mg/L; for MIC of partner antibiotic in the presence of PFOB at 2 mg/L: PFOB 2 mg/L; for MIC of partner antibiotic in the presence of PFOB at 16 mg/L: PFOB 16 mg/L; for MIC of partner antibiotic in the presence of PFOB at 32 mg/L: PFOB 32 mg/L; for MIC: Enterococcus faecalis, ATCC10541; for MIC of partner antibiotic in the presence of PFOB at 4 mg/L: PFOB 4 mg/L; for MIC of partner antibiotic in the presence of PFOB at 8 mg/L: PFOB 8 mg/L
From the text: The aim of the study was to detect any synergy between PFOB and the other antibiotics. For the purposes of the study, synergy was defined in accordance with the FIC (fractional inhibitory concentration) index, as disclosed by Lorian (1991, In “Antibiotics in Laboratory Medicine” 3rd edition, Eds. Williams & Wilkins; esp. p 434-443).

E. faecalis ATCC 29212 = assay: Checkerboard microdilution MIC with PFOB, Table 2; format: cell-based; conditions: E. faecalis ATCC 29212; for MIC of partner antibiotic in the presence of PFOB at 0.5 mg/L: PFOB 0.5 mg/L; for MIC of partner antibiotic in the presence of PFOB at 1 mg/L: PFOB 1 mg/L; for MIC of partner antibiotic in the presence of PFOB at 2 mg/L: PFOB 2 mg/L; for MIC of partner antibiotic in the presence of PFOB at 4 mg/L: PFOB 4 mg/L; for MIC of partner antibiotic in the presence of PFOB at 8 mg/L: PFOB 8 mg/L; for MIC of partner antibiotic in the presence of PFOB at 16 mg/L: PFOB 16 mg/L; for MIC of partner antibiotic in the presence of PFOB at 32 mg/L: PFOB 32 mg/L; for MIC: Enterococcus faecalis, ATCC29212, partner antibiotic alone, read-out: MIC (alone) of Partner; for Synergy FIC: FIC index of PFOB + labelled partner, <0.5 = synergy; for MIC of PFOB & Partner: Partner concentration: optimum synergistic combination with PFOB, second figure (partner)
From the text: as §1
(§2) In Table 2, results in the checkerboard indicating synergy are hatched, and specific optimum synergistic combinations are boxed.

E.faecalis 78097 (van B) = assay: Checkerboard microdilution MIC with PFOB, Table 2; format: cell-based; conditions: E.faecalis 78097 (van B); for MIC of partner antibiotic in the presence of PFOB at 0.5 mg/L: PFOB 0.5 mg/L; for MIC of partner antibiotic in the presence of PFOB at 1 mg/L: PFOB 1 mg/L; for MIC of partner antibiotic in the presence of PFOB at 2 mg/L: PFOB 2 mg/L; for MIC of partner antibiotic in the presence of PFOB at 4 mg/L: PFOB 4 mg/L; for MIC of partner antibiotic in the presence of PFOB at 8 mg/L: PFOB 8 mg/L; for MIC of partner antibiotic in the presence of PFOB at 16 mg/L: PFOB 16 mg/L; for MIC of partner antibiotic in the presence of PFOB at 32 mg/L: PFOB 32 mg/L; for MIC: Enterococcus faecalis, partner antibiotic alone, read-out: MIC (alone) of Partner
From the text: as §1, §2

E. faecalis 5659 (vanA) = assay: Checkerboard microdilution MIC with PFOB, Table 2; format: cell-based; conditions: E. faecalis 5659 (vanA); for MIC of partner antibiotic in the presence of PFOB at 0.5 mg/L: PFOB 0.5 mg/L; for MIC of partner antibiotic in the presence of PFOB at 1 mg/L: PFOB 1 mg/L; for MIC of partner antibiotic in the presence of PFOB at 2 mg/L: PFOB 2 mg/L; for MIC of partner antibiotic in the presence of PFOB at 4 mg/L: PFOB 4 mg/L; for MIC of partner antibiotic in the presence of PFOB at 8 mg/L: PFOB 8 mg/L; for MIC of partner antibiotic in the presence of PFOB at 16 mg/L: PFOB 16 mg/L; for MIC of partner antibiotic in the presence of PFOB at 32 mg/L: PFOB 32 mg/L; for MIC: Enterococcus faecalis, partner antibiotic alone, read-out: MIC (alone) of Partner
From the text: as §1, §2

[1] = partner antibiotic alone, read-out: MIC (alone) of Partner

Compound	MIC of partner antibiotic in the presence of PFOB at 0.5 mg/L (E. faecalis ATCC 10541) [µg/mL]	MIC of partner antibiotic in the presence of PFOB at 1 mg/L (E. faecalis ATCC 10541) [µg/mL]	MIC of partner antibiotic in the presence of PFOB at 2 mg/L (E. faecalis ATCC 10541) [µg/mL]	MIC of partner antibiotic in the presence of PFOB at 16 mg/L (E. faecalis ATCC 10541) [µg/mL]	MIC of partner antibiotic in the presence of PFOB at 32 mg/L (E. faecalis ATCC 10541) [µg/mL]	MIC (E. faecalis ATCC 10541; [1]) [µg/mL]	MIC of partner antibiotic in the presence of PFOB at 0.5 mg/L (E. faecalis ATCC 29212) [µg/mL]	MIC of partner antibiotic in the presence of PFOB at 1 mg/L (E. faecalis ATCC 29212) [µg/mL]	MIC of partner antibiotic in the presence of PFOB at 2 mg/L (E. faecalis ATCC 29212) [µg/mL]	MIC of partner antibiotic in the presence of PFOB at 4 mg/L (E. faecalis ATCC 29212) [µg/mL]	MIC of partner antibiotic in the presence of PFOB at 8 mg/L (E. faecalis ATCC 29212) [µg/mL]	MIC of partner antibiotic in the presence of PFOB at 16 mg/L (E. faecalis ATCC 29212) [µg/mL]	MIC of partner antibiotic in the presence of PFOB at 32 mg/L (E. faecalis ATCC 29212) [µg/mL]	MIC (E. faecalis ATCC 29212) [µg/mL]	MIC of partner antibiotic in the presence of PFOB at 0.5 mg/L (E.faecalis 78097 (van B)) [µg/mL]	MIC of partner antibiotic in the presence of PFOB at 1 mg/L (E.faecalis 78097 (van B)) [µg/mL]	MIC of partner antibiotic in the presence of PFOB at 2 mg/L (E.faecalis 78097 (van B)) [µg/mL]	MIC of partner antibiotic in the presence of PFOB at 4 mg/L (E.faecalis 78097 (van B)) [µg/mL]	MIC of partner antibiotic in the presence of PFOB at 8 mg/L (E.faecalis 78097 (van B)) [µg/mL]	MIC of partner antibiotic in the presence of PFOB at 16 mg/L (E.faecalis 78097 (van B)) [µg/mL]	further results
CC1(C)S[C@@H]2[C@H](NC(=O)[C@H](N)c3ccccc3)C(=O)N2[C@H]1C(=O)O [Ampicillin, ampicillin]	0.25	0.25	0.25	0.06	<0.03	1	1	1	1	1	1	1	<0.03	0.5	0.5	0.5	0.5	0.5	0.5	0.5	synergy with PFOB (enterococci): less marked, but still significant, synergy; Synergy FIC (E. faecalis ATCC 10541): 0.253; MIC of partner antibiotic in the presence of PFOB at 32 mg/L (E.faecalis 78097 (van B)): 0.5 µg/mL; MIC (E.faecalis 78097 (van B)): 1 µg/mL; MIC of partner antibiotic in the presence of PFOB at 0.5 mg/L (E. faecalis 5659 (vanA)): 2 µg/mL; MIC of partner antibiotic in the presence of PFOB at 1 mg/L (E. faecalis 5659 (vanA)): 2 µg/mL; MIC of partner antibiotic in the presence of PFOB at 2 mg/L (E. faecalis 5659 (vanA)): 2 µg/mL; MIC of partner antibiotic in the presence of PFOB at 4 mg/L (E. faecalis 5659 (vanA)): 2 µg/mL; MIC of partner antibiotic in the presence of PFOB at 8 mg/L (E. faecalis 5659 (vanA)): 1 µg/mL; MIC of partner antibiotic in the presence of PFOB at 16 mg/L (E. faecalis 5659 (vanA)): 1 µg/mL; MIC of partner antibiotic in the presence of PFOB at 32 mg/L (E. faecalis 5659 (vanA)): 0.25 µg/mL; MIC (E. faecalis 5659 (vanA)): 1 µg/mL
CO/N=C(\C(=O)N[C@@H]1C(=O)N2C(C(=O)O)=C(COC(N)=O)CS[C@H]12)c1ccco1 [Cefuroxime, cefuroxime]	>64	>64	>64	<0.06	<0.06	> 64	>64	>64	32	8	4	1	<0.06	32	64	8	8	8	4	1	Synergy FIC (E. faecalis ATCC 10541): 0.067; MIC of partner antibiotic in the presence of PFOB at 4 mg/L (E. faecalis ATCC 10541): 8 µg/mL; MIC of partner antibiotic in the presence of PFOB at 8 mg/L (E. faecalis ATCC 10541): 0.5 µg/mL; MIC (E. faecalis ATCC 10541; optimum synergistic combination of PFOB with the labelled partner, first figure (PFOB), read-out: MIC of PFOB & Partner: PFOB concentration): 8 µg/mL; MIC (E. faecalis ATCC 10541; optimum synergistic combination with PFOB, second figure (partner), read-out: MIC of PFOB & Partner: Partner concentration): 0.5 µg/mL; Synergy FIC (E. faecalis ATCC 29212): 0.156; MIC of PFOB & Partner: Partner concentration (E. faecalis ATCC 29212): 1 µg/mL; Synergy FIC (E.faecalis 78097 (van B); FIC index of PFOB + labelled partner, <0.5 = synergy): 0.07; MIC of partner antibiotic in the presence of PFOB at 32 mg/L (E.faecalis 78097 (van B)): 0.5 µg/mL; MIC of PFOB & Partner: Partner concentration (E.faecalis 78097 (van B); optimum synergistic combination with PFOB, second figure (partner)): 8 µg/mL; MIC (E.faecalis 78097 (van B)): > 64 µg/mL; MIC of partner antibiotic in the presence of PFOB at 0.5 mg/L (E. faecalis 5659 (vanA)): >64 µg/mL; MIC of partner antibiotic in the presence of PFOB at 1 mg/L (E. faecalis 5659 (vanA)): >64 µg/mL; MIC of partner antibiotic in the presence of PFOB at 2 mg/L (E. faecalis 5659 (vanA)): >64 µg/mL; MIC of partner antibiotic in the presence of PFOB at 4 mg/L (E. faecalis 5659 (vanA)): >64 µg/mL; MIC of partner antibiotic in the presence of PFOB at 8 mg/L (E. faecalis 5659 (vanA)): >64 µg/mL; MIC of partner antibiotic in the presence of PFOB at 16 mg/L (E. faecalis 5659 (vanA)): >64 µg/mL; MIC of partner antibiotic in the presence of PFOB at 32 mg/L (E. faecalis 5659 (vanA)): 0.5 µg/mL; MIC (E. faecalis 5659 (vanA)): > 64 µg/mL
C[C@@H](O)[C@H]1C(=O)N2C(C(=O)O)=C(SCCN=CN)C[C@H]12 [Imipenem, imipenem]	1	1	1	0.125	<0.03	1	0.5	0.5	0.5	0.25	0.125	0.125	<0.03	0.5	1	1	1	1	1	1	MIC of partner antibiotic in the presence of PFOB at 4 mg/L (E. faecalis ATCC 10541): 1 µg/mL; MIC of partner antibiotic in the presence of PFOB at 8 mg/L (E. faecalis ATCC 10541): 0.25 µg/mL; Synergy FIC (E. faecalis ATCC 29212): 0.375; MIC of PFOB & Partner: Partner concentration (E. faecalis ATCC 29212): 0.12 µg/mL; MIC of partner antibiotic in the presence of PFOB at 32 mg/L (E.faecalis 78097 (van B)): 1 µg/mL; MIC (E.faecalis 78097 (van B)): 0.5 µg/mL; MIC of partner antibiotic in the presence of PFOB at 0.5 mg/L (E. faecalis 5659 (vanA)): 1 µg/mL; MIC of partner antibiotic in the presence of PFOB at 1 mg/L (E. faecalis 5659 (vanA)): 1 µg/mL; MIC of partner antibiotic in the presence of PFOB at 2 mg/L (E. faecalis 5659 (vanA)): 1 µg/mL; MIC of partner antibiotic in the presence of PFOB at 4 mg/L (E. faecalis 5659 (vanA)): 1 µg/mL; MIC of partner antibiotic in the presence of PFOB at 8 mg/L (E. faecalis 5659 (vanA)): 1 µg/mL; MIC of partner antibiotic in the presence of PFOB at 32 mg/L (E. faecalis 5659 (vanA)): 0.25 µg/mL; MIC (E. faecalis 5659 (vanA)): 0.25 µg/mL
